Patent US20230321284A1, “COMPOUND, CONTRAST AGENT, AND METHOD FOR PRODUCING COMPOUND” (ST. MARIANNA UNIVERSITY SCHOOL OF MEDICINE, priority 2020, published 2023)

Key:
[1] = Contrast experiment: CT imaging after tail vein injection (Test Example 3); type: in vivo; settings: 9-week-old male ICR mouse, MEG-1 dose 52 mg/animal, images before, during, 15 minutes and 1 hour after administration
Experimental: A 9-week-old male ICR mouse purchased from CLEA Japan, Inc. was anesthetized by isoflurane inhalation. While the respiratory condition was monitored with DELPet μCT100 application software (DELBio, Inc.), MEG-1 was gradually administered by injection from the tail vein. The dose of MEG-1 was set to 52 mg/animal.
CT images were taken before administration, during administration, 15 minutes after administration and 1 hour after administration. Image data from the chest to the lower abdomen was reconstituted at a pixel size of […] and converted to dicom data. Further, the images were analyzed with VivoQuant software (inviCRO. LLC).
A similar test was conducted using MEG-2, MEG-4, or RYO-2 instead of MEG-1.

[2] = target: T1, asialoglycoprotein receptor (Homo sapiens, UniProt P07306+P07307); test: Comparison of uptake activity by asialoglycoprotein receptor among compounds in HepG2 (Test Example 2); type: cell-based; settings: compound 1.0 mM/mL, I-ASOR 0.4 μg/mL, 37° C. for 30 minutes, FIG. 3
T1 construct: reacted with HepG2 cells washed with ice-cold MEM (GIBCO) in 6 wells; endogenous in cells; host or cells: HepG2
T1 sequence (P07306 1-291): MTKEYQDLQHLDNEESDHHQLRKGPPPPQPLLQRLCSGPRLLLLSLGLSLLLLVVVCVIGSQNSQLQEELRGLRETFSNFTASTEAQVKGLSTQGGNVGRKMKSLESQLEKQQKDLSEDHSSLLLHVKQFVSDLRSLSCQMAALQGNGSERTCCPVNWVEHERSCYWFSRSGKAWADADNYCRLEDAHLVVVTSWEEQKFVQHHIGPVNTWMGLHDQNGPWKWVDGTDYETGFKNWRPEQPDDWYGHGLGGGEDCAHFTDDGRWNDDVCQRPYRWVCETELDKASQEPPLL
T1 sequence (P07307 1-311): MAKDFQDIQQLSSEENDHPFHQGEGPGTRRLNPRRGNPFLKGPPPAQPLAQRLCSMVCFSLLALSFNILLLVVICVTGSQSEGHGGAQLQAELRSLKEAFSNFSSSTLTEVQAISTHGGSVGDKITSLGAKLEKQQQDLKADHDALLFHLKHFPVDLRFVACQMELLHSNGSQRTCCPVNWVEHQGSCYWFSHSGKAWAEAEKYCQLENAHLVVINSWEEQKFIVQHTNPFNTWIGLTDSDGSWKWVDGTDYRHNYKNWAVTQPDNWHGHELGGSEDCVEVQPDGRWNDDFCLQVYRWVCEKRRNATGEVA
Experimental: Uptake activity by an asialoglycoprotein receptor was compared among MEG-2, MEG-4, RYO-1, and RYO-2 by use of the same method as in Test Example 1.
A PBS solution containing 0.4 μg/mL I-ASOR obtained in the same manner as in Test Example 1 and 1.0 mM/mL MEG-2, MEG-4, RYO-1, or RYO-2 was prepared and reacted with HepG2 washed with ice-cold MEM (GIBCO) in 6 wells at 37° C. for 30 minutes. The cells were thoroughly washed and then lysed using 0.1 N NaOH, and radiation dose “A” taken up into HepG2 was measured.
An experiment was conducted as a positive control in which a PBS solution containing 0.4 μg/mL I-ASOR and 1000 μg/mL nonlabelled ASOR was prepared and reacted with HepG2 washed with ice-cold MEM (GIBCO) in 6 wells at 4° C. for 30 minutes.
Next, the background of nonspecific binding of I-ASOR was measured as follows in order to eliminate the influence of the nonspecific binding of I-ASOR to the cells. Specifically, I-ASOR (0.4 μg/mL) and a 100-fold concentration (40 μg/mL) of nonlabelled ASOR were mixed and reacted with HepG2 in the same manner as above. Then, the obtained cells were washed and lysed, and radiation dose “B” was measured. The radiation dose “B” as the background was commonly used in all of the control sample, the positive control sample, and the sample supplemented with each compound.
Next, “A-B” was calculated as to each sample to calculate I-ASOR specifically taken up into HepG2. The experiment was conducted in triplicate to calculate standard deviation.

[3] = target: T1, asialoglycoprotein receptor; test: Uptake inhibition test of I-ASOR in liver cancer cell line HepG2 (Test Example 1); type: cell-based; settings: compound 100 μg/mL, I-ASOR 6 μg/mL, 4° C. for 30 minutes, FIG. 1
Experimental: RYO-1, MEG-1, and MEG-2 prepared in Examples were subjected to an uptake inhibition test, in which the uptake is performed by an asialoglycoprotein receptor specifically expressed in hepatocytes, using a liver cancer cell line HepG2 in accordance with J Gastroenterol 1998, 33, 855-859. Specifically, the test is based on the following method.
First, orosomucoid (Sigma-Aldrich Co., LLC) was converted to an asialo compound through reaction with immobilized neuraminidase (Sigma-Aldrich Co., LLC) at 37° C. for 12 hours. This asialo-orosomucoid (ASOR) was labeled with radioactive iodine (125I) by use of the chloramine-T method to prepare I-ASOR.
The obtained I-ASOR was prepared as a 6 μg/mL solution in PBS and reacted with HepG2 cells washed with ice-cold MEM (GIBCO) in 6 wells at 4° C. for 30 minutes. The cells were thoroughly washed and then lysed using 0.1 N NaOH, and radiation dose “A” taken up into the cells was measured (control sample). […]
Next, the background of nonspecific binding of I-ASOR was measured as follows in order to eliminate the influence of the nonspecific binding of I-ASOR to the cells. […] Then, the obtained cells were washed and lysed, and radiation dose “B” was measured. […]
Next, “A-B” was calculated as to each sample to calculate I-ASOR specifically taken up into HepG2. […]

Panc-1 cells = test: Uptake inhibition test of I-ASOR in pancreatic cancer cell line Panc-1 having no asialoglycoprotein receptor (Test Example 1); type: cell-based; settings: compound 100 μg/mL, I-ASOR 6 μg/mL, 4° C. for 30 minutes, FIG. 2
Experimental: A similar experiment was conducted using a pancreatic cancer cell line Panc-1 having no asialoglycoprotein receptor. Specifically, the test is based on the following method.
I-ASOR labeled with radioactive iodine (125I) in the same manner as above was prepared as a 6 μg/mL solution in PBS and reacted with Panc-1 cells washed with ice-cold MEM (GIBCO) in 6 wells at 4° C. for 30 minutes. The cells were thoroughly washed and then lysed using 0.1 N NaOH, and radiation dose “A” taken up into the cells was measured (control sample). Similar measurement was performed by the addition of I-ASOR as well as MEG-1, MEG-2, or RYO-1 at 100 μg/mL to measure radiation dose “A” when each compound was added.
Next, the background of nonspecific binding of I-ASOR was measured as follows in order to eliminate the influence of the nonspecific binding of I-ASOR to the cells. Specifically, I-ASOR (6 μg/mL) and a 100-fold concentration (600 μg/mL) of nonlabelled ASOR were mixed and reacted with Panc-1 in the same manner as above. Then, the obtained cells were washed and lysed, and radiation dose “B” was measured. The radiation dose “B” as the background was commonly used in all of the control sample and the sample supplemented with each compound.
Next, “A-B” was calculated as to each sample to calculate I-ASOR specifically taken up into Panc-1. […]

inhibitory ability on ligand uptake compared between compounds [2] | SMILES | CT images: appearance of high-absorption liquid (excretion sites) [1] | inhibition of the uptake of the ligand (I-ASOR) in HepG2 [2] | inhibition of the uptake of the ligand (I-ASOR) in HepG2 [3] | inhibition of the uptake of the ligand (I-ASOR) in Panc-1 (Panc-1 cells)
higher in RYO-2 than in RYO-1 | O=C(NCCNC(=O)[C@H](O)[C@@H](O)[C@H](O[C@@H]1O[C@H](CO)[C@H](O)[C@H](O)[C@H]1O)[C@H](O)CO)c1c(I)c(C(=O)NCCNC(=O)[C@H](O)[C@@H](O)[C@H](O[C@@H]2O[C@H](CO)[C@H](O)[C@H](O)[C@H]2O)[C@H](O)CO)c(I)c(C(=O)NCCNC(=O)[C@H](O)[C@@H](O)C(O[C@@H]2O[C@H](CO)[C@H](O)[C@H](O)[C@H]2O)[C@H](O)CO)c1I (stereo partly drawn) [RYO-2] | a liquid that exhibited high absorption, which was not observed before administration, was confirmed to appear over time in the intestine and in the urinary bladder | competitively inhibited the uptake of the ligand in HepG2 | – | –
– | CC(=O)Nc1c(I)c(NC(C)=O)c(I)c(C(=O)NCCO[C@@H]2OC(CO)[C@H](O)C(O)[C@@H]2O)c1I (stereo partly drawn) [MEG-1] | a liquid that exhibited high absorption, which was not observed before administration, was confirmed to appear over time in the intestine and in the urinary bladder | – | competitively inhibit the uptake of the ligand | none of RYO-1, MEG-1, and MEG-2 inhibited the uptake of the ligand
– | CC(=O)Nc1c(I)c(NC(C)=O)c(I)c(C(=O)NCCNC(=O)[C@H](O)[C@@H](O)C(O[C@@H]2OC(CO)[C@H](O)[C@H](O)C2O)[C@@H](O)CO)c1I (stereo partly drawn) [RYO-1] | – | competitively inhibited the uptake of the ligand in HepG2 | competitively inhibit the uptake of the ligand | none of RYO-1, MEG-1, and MEG-2 inhibited the uptake of the ligand
higher in MEG-4 than in MEG-2 | O=C(NCCOCCO[C@@H]1OC(CO)[C@H](O)[C@H](O)C1O)c1c(I)c(C(=O)NCCOCCO[C@@H]2OC(CO)[C@H](O)[C@H](O)C2O)c(I)c(C(=O)NCCOCCO[C@@H]2OC(CO)[C@H](O)[C@H](O)C2O)c1I (stereo partly drawn) [MEG-4] | a liquid that exhibited high absorption, which was not observed before administration, was confirmed to appear over time in the intestine and in the urinary bladder | competitively inhibited the uptake of the ligand in HepG2 | – | –
